Source: PMC11405833, “Targeted sulfur(VI) fluoride exchange-mediated covalent modification of a tyrosine residue in the catalytic pocket of tyrosyl-DNA phosphodiesterase 1” (Communications Chemistry, 2024)
Read-outs that look alike come from different tables or passages of the source.

What was measured:
[1] = molecular target: T1, recombinant full-length TDP1 (Homo sapiens, UniProt Q9NUW8); test: gel-based TDP1 fluorescence assay in vitro (wild-type TDP1)
Method: The inhibition of TDP1 or TDP1^Y204F was also conducted using a gel-based assay as previously described[13],[14]. Briefly, the DNA substrate (1 nM, 5′Cy5-[sequence]-pY-3′, Cy5-N14Y) was incubated for 15 min. with recombinant full-length TDP1 or TDP1^Y204F (40 pM) in the absence or presence of inhibitors for 5 min. or 3 hr preincubation time as shown in Table 1 at room temperature (22 °C) in TDP1 reaction buffer (50 mM Tris HCl, pH 7.5, 80 mM KCl, 2 mM EDTA, 1 mM DTT, 40 µg/mL BSA and 0.01% Tween-20). […] Samples were then subjected to a 20% denaturing PAGE gel following by gel scanning using a Typhoon FLA 9500 scanner (GE Healthcare). The IC50 values of TDP1 inhibitors were calculated by comparing the percentage of cleavage product (5′Cy5-[sequence]-p-3′, Cy5-N14P) to DMSO control.

TDP1^Y204F = molecular target: T2, TDP1^Y204F (Homo sapiens, UniProt Q9NUW8, Y204F); test: gel-based TDP1 fluorescence assay in vitro (mutant TDP1 Y204F); assay type: biochemical
T2 construct: was incubated for 15 min. with recombinant full-length TDP1 or TDP1^Y204F (40 pM)
T2 sequence (Q9NUW8 whole entry Y204F): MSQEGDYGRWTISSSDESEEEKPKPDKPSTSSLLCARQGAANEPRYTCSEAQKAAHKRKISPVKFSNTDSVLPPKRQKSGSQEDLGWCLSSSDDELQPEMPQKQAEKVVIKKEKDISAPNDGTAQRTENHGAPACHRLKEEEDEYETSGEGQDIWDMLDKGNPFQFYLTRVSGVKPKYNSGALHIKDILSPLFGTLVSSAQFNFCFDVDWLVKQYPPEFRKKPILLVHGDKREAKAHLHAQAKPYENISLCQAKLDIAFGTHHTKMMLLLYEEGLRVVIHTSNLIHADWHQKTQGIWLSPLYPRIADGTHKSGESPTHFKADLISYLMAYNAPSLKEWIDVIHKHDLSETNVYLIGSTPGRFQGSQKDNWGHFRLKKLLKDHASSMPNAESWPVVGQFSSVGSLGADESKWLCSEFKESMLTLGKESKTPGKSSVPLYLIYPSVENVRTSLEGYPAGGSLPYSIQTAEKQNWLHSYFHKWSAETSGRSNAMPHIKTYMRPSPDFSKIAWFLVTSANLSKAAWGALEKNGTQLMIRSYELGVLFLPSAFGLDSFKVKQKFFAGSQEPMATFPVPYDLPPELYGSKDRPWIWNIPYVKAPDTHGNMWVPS
Method: The inhibition of TDP1 or TDP1^Y204F was also conducted using a gel-based assay as previously described[13],[14]. Briefly, the DNA substrate (1 nM, 5′Cy5-[…]-pY-3′, Cy5-N14Y) was incubated for 15 min. with recombinant full-length TDP1 or TDP1^Y204F (40 pM) in the absence or presence of inhibitors for 5 min. or 3 hr preincubation time as shown in Table 1 at room temperature (22 °C) in TDP1 reaction buffer (50 mM Tris HCl, pH 7.5, 80 mM KCl, 2 mM EDTA, 1 mM DTT, 40 µg/mL BSA and 0.01% Tween-20). […] Samples were then subjected to a 20% denaturing PAGE gel following by gel scanning using a Typhoon FLA 9500 scanner (GE Healthcare). The IC50 values of TDP1 inhibitors were calculated by comparing the percentage of cleavage product (5′Cy5-[…]-p-3′, Cy5-N14P) to DMSO control.

TDP1(148-608) = molecular target: T3, TDP1(148-608) (Homo sapiens, UniProt Q9NUW8); test: intact mass LC-MS analysis of covalent modification; assay type: binding; conditions: 50 μM compound, overnight 25 °C, 1:65 enzyme/compound
T3 construct: The recombinant TDP1(148-608) (2 μg) in 50 μL of buffer
T3 sequence (Q9NUW8 148-608): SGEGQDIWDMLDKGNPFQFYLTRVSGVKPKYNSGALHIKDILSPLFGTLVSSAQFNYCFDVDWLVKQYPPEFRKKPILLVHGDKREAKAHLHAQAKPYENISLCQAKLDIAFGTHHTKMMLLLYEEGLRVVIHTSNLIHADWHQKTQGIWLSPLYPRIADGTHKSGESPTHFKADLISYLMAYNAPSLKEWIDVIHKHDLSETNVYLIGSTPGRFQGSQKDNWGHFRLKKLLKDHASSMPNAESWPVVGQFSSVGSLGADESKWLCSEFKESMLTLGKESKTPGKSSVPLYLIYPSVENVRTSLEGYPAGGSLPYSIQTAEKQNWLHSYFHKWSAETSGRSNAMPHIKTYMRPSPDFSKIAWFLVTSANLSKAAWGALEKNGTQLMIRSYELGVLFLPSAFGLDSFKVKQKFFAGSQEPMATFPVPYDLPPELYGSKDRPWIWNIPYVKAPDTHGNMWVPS
Method: The samples were incubated overnight at 25 °C with shaking at 500 rpm. The samples were diluted with water to 100 μL and analyzed by liquid chromatography coupled online with mass spectrometry (LC-MS)[67]. Separation was performed on a Vanquish Flex chromatographic system (Thermo) using a MabPac reversed-phase column (4 μm, 1500 Å, 3 ×50 mm, Thermo) maintained at 50 °C. The labeled proteins were resolved at 0.5 mL/min over a 15 min gradient of buffer B (47.5% acetonitrile, 47.5% isopropanol, 5% water, 0.2% formic acid (FA)) from 2 to 100% followed by re-equilibration at 2% buffer B (total run time 20 min) against buffer A (5% acetonitrile, 0.2% FA in water). The eluates from the column were introduced to an Exactive Plus EMR mass spectrometer (Thermo) through a heated electrospray ionization (HESI) source. Intact mass spectra were acquired over 500-2000 m/z window at 35,000 FT resolution (at 200 m/z), averaging 10 microscans, with an AGC target of 3 ×10^6, max injection time of 200 ms, 80% S-lens RF level, 20 V source-induced dissociation, and capillary temperature set at 275 °C. The resulting spectra were manually averaged followed by deconvolution using the ReSpect algorithm in BioPharma Finder 2.0 (Thermo). […]

[2] = molecular target: T1, recombinant full-length TDP1; parameters: was incubated for 15 min. with recombinant full-length TDP1 or TDP1^Y204F (40 pM); method as in PMID 31199869; conditions: reported data; cited from earlier work
[3] = TDP1 IC50, pre-incubation time 5 min with wild-type (WT) TDP1

T1 sequence (Q9NUW8 whole entry): as the sequence (Q9NUW8 whole entry Y204F) above, with F204Y counted along it

Question: Which IC50 [1] does the source give for `O=C(O)c1c[nH]c2c(S(=O)(=O)O)cccc2c1=O` [Compound 2a] here?
Answer: Its IC50 is 4.61 ± 0.35 mM.

Question: With `O=C(O)c1c[nH]c2c(S(=O)(=O)NCCCc3ccccc3)cccc2c1=O` [Compound 2d] as the compound, how does the IC50 ([1]; read-out: TDP1 IC50, WT TDP1, dash = no activity up to highest tested concentration) read?
Answer: Its IC50 is greater than 9 mM.

Question: Which “fold increase in inhibitory potency relative to parent compound 3c” value [1] does the source give for `O=C(NCCc1ccccc1)c1ccc(-c2cccc3c(=O)c(C(=O)O)c[nH]c23)c(OS(=O)(=O)F)c1` [Compound 3g, 8-(2-((fluorosulfonyl)oxy)-4-(phenethylcarbamoyl)phenyl)-4-oxo-1,4-dihydroquinoline-3-carboxylic acid] here?
Answer: Its value is 5 to 10 fold.

Question: What about the “fold increase in inhibitory potency compared with quinolone 1a” value ([1]; 5 min pre-incubation, WT TDP1, vs 1a IC50 7.2 mM) of the same compound?
Answer: The value was 18 fold.

Question: What about the “fold increase in TDP1 inhibitory potency compared to quinolone 3a” value ([1]; 5 min pre-incubation, WT TDP1, vs 3a IC50 5.17 mM) of the same compound?
Answer: Its value is 13 fold.

Question: And the IC50 [1, 3]?
Answer: The IC50 was 0.41 ± 0.07 mM.

Question: What about the IC50 ([1]; TDP1 IC50, pre-incubation time 3 h with WT TDP1) of the same compound?
Answer: The IC50 was 0.27 ± 0.03 mM.

Question: What about the “fold enhancement of IC50 by extending pre-incubation time from 5 min to 3 h” value ([1]; WT TDP1) of the same compound?
Answer: The value was 1.5 fold.

Question: What about the IC50 (TDP1^Y204F) of the same compound?
Answer: The IC50 was 4.69 ± 1.26 mM.

Question: And the “fold reduced inhibitory potency with mutant TDP1^Y204F vs WT” value (TDP1^Y204F; 5 min pre-incubation)?
Answer: Its value is 11 fold.

Question: What about the “mass shift of single covalent modification of TDP1(148-608) (loss of fluorine)” value (TDP1(148-608)) of the same compound?
Answer: The value was “+490.83 Da”.

Question: Which IC50 [1, 3] does the source give for `O=C(O)c1c[nH]c2c(-c3cccc(OS(=O)(=O)F)c3)cccc2c1=O` [Compound 3d] here?
Answer: Its IC50 is 0.69 ± 0.04 mM.

Question: For `O=C(O)c1c[nH]c2c(S(=O)(=O)NCCc3ccccc3)cccc2c1=O` [Compound 2c], which IC50 [1] is on record?
Answer: Its IC50 is greater than 9 mM.

Question: For `O=C(O)c1c[nH]c2c(-c3ccccc3)cccc2c1=O` [Compound 3a], which IC50 [1] is on record?
Answer: The IC50 was 5.17 ± 0.14 mM.

Question: With `O=C(O)c1c[nH]c2c(S(=O)(=O)Nc3ccccc3)cccc2c1=O` [Compound 2b] as the compound, how does the IC50 [1] read?
Answer: Its IC50 is greater than 9 mM.

Question: For `O=C(O)c1cnc2ccccc2c1O` [Compound 1a], which IC50 [2] is on record?
Answer: The IC50 was 7.2 mM.
